Patent EP4653435A1, “PRMT5-MTA INHIBITOR” (Suzhou Puhe Biopharma Co., Ltd., priority 2023, dated 2024)

Experiments:
[1] = Mouse pharmacokinetics testing; type: in vivo, CD1 female mice; settings: female, CD1, mouse, in vivo
Method: CD1 female mice were used as test animals and administered the compounds orally/intravenously (oral dosage was 10 mg/kg and intravenous dosage was 2 mg/kg). Test protocol: Each oral and intravenous group consisted of three mice. […] Plasma drug concentrations after oral and intravenous administration were determined by LC/MS/MS, and the collected data analyzed using AB Sciex QTRAP 6500 software.

[2] = Liver microsomal stability assay, mouse; type: in vitro ADME; settings: mouse liver microsomes 0.5 mg/mL, compound 1 µM, NADPH 1 mM, 60 minute
Method: (§7) The compounds to be tested were co-incubated with liver microsomes of different species with or without the addition of NADPH. The final concentration of the test compounds in the test system was 1 µM, the final concentration of NADPH was 1 mM, and the final concentration of liver microsomes was 0.5 mg/mL.

MDR1 (P-gp) = experiment: in vitro; settings: dog, MDCK-MDR1, pH 7.4
Method: (§1) The membrane permeability of the molecules of the present invention was evaluated to predict their permeability to the brain.
(§2) The specific procedure was: 1. MDCK-MDR1 cells were pre-cultured at a density of 1.56*10^6 cells/mL in a 96-well plate at 37°C for 7 days. 2. The MDCKII-MDR1 plate was taken out of the incubator, rinsed twice with pre-warmed HBSS (10 mM HEPES, pH 7.4), and then incubated at 37°C for 30 minutes. 3. The stock solution of the compound to be tested was diluted with DMSO to obtain a 0.2 mM solution, and then diluted with HBSS (10 mM HEPES, pH 7.4) to obtain a 1 µM working solution. A blank control group was also diluted with DMSO to obtain a 0.2 mM solution, and then diluted with HBSS (10 mM HEPES, pH 7.4) to obtain a 1 µM working solution. The final concentration of DMSO in the culture system was 0.5%. 4. The transport rate of the drug in the apical to basolateral direction was determined: 125 µL of the 1 µM test compound solution was added to a Transwell insert (top compartment), before immediately transferring a 50 µL sample (D0 sample) from the top comparment to a new 96-well plate. The receiving plate wells (basolateral compartment) were filled with 235 µL HBSS (10 mM HEPES, pH 7.4) and incubated at 37°C for 2 hours. 5. Upon completion of the incubation, 50 µL samples were transferred from the donor and acceptor sides to the wells of a new 96-well plate, before adding 4 volumes of cold acetonitrile containing an appropriate internal standard (IS). Prior to LC-MS/MS analysis, 100 µL of the supernatant was taken and mixed with an appropriate volume of ultrapure water. Papp = (VA×[drug]acceptor)/(Area×Time×[drug]initial,donor) [formula] where VA is the volume of the receptor pores (unit:mL), Area is the surface area of the membrane (0.143 cm^2 for a Transwell-96 well permeable support), and time is the total transport time in seconds. Efflux Ratio = Papp(B−A) /Papp(A−B) [formula]

in vitro [3] = settings: dog, MDCK-MDR1, pH 7.4
Method: as §1, §2

SDMA/HCT116-MTAPdel = experiment: In-cell arginine symmetric dimethylation inhibition (In-cell western, ICW), MTAP-deficient cells; type: cell-based; settings: for IC50: Homo sapiens, HCT-116, HCT116 MTAP-deficient cells, 96 hours; for Selectivity wt/MTAPdel: ratio SDMA IC50 wt / MTAPdel
Method: (§3) 60 nL of different concentrations of compounds were added to each well using an Echo, and incubated at 37°C, 5% CO2 for 96 hours.
(§4) Next, 50 µL of 4% paraformaldehyde solution was added to each well and incubated at room temperature for 20 minutes to fix the cells. The solution in the wells was removed, and each well was rinsed four times with PBS solution containing 0.1% Tween 20 (PBST). To each well was then added 30 µL of ice-cold methanol. After standing at -20°C for 10 minutes, the methanol was removed and the wells washed four times with PBST. 30 µL of Odyssey blocking solution containing 0.5% Tween 20 was added to each well and shaken for 2 hours at room temperature. The blocking solution was removed and 30 µL of primary antibody (Symmetric Di-Methyl Arginine Motif [sdma-RG] MultiMab™ Rabbit mAb mix) diluted at 1:500 in Odyssey blocking solution containing 0.5% Tween 20 was added to each well. The plates were incubated overnight at 4°C, before removing the primary antibody and rinsing each well four times with PBST, 5 minutes per rinse. Secondary antibody (goat anti-rabbit IRDye 800CW, 1:800) and nuclear stain (DRAQ5, 1:10000) diluted in Odyssey blocking solution containing 0.5% Tween 20 were then added to each well before incubating at room temperature for 2 hours in the dark. The secondary antibody was removed, and the wells rinsed four times with PBST.
(§5) The sdme-RG and DRAQ5 signals were scanned at 800 nm and 700 nm respectively on a Li-Cor Odyssey instrument and the signal values recorded. The sdme-RG/DRAQ5 ratio was used to calculate the percentage inhibition of arginine symmetric dimethylation (SDMA), and the IC50 value calculated using GraphPad Prism software.

HCT116-MTAPdel = experiment: 2D antiproliferative assay (CTG cell viability), MTAP-deficient cells; type: cell-based; settings: for IC50: Homo sapiens, HCT-116, HCT116 MTAP-deficient cells, 7-10 days, CTG, read-out: HCT116-MTAPdel/IC50/nM; for HCT116WT IMTAPdel selectivity: ratio IC50 wild type / MTAPdel, antiproliferation
Method: (§6) HCT116 wild-type and MTAP-deficient cells were cultured in McCoy's 5A medium containing 10% FBS and 1% penicillin-streptomycin, and cultured in a 37°C, 5% CO2 constant temperature incubator. 40 µL of cell suspension was introduced into each well of a 384-well microplate. 40 nL of different concentrations of test compounds were added to each well using an Echo, before culturing in a 37°C, 5% CO2 constant temperature incubator for 7-10 days. 40 µL of CTG solution (Promega, Cat No. G7573) was added to each well and incubated in a 37°C, 5% CO2 constant temperature incubator for 30 minutes in the dark.

[4] = tested on: NCI-H838 (MTAPdel) non-small cell lung adenocarcinoma tumor cells; experiment: In vivo efficacy, NCI-H838 subcutaneous xenograft; parameters: species or system BALB/c nude mice; settings: BID, oral; for TGI: 23 consecutive days; for Tumor volume (mm^3)-D1: D1 (baseline at start of dosing)
Method: NCI-H838 (MTAPdel) non-small cell lung adenocarcinoma tumor cells were cultured and inoculated into 6-8 week old female BALB/c nude mice (weighing about 20 g), with all mice inoculated subcutaneously. The mice were cultured in an SPF-grade environment, and all mice had free access to commercially certified standard diets. Test compounds were orally administered daily once the average tumor volume of the mice grew to about 140 mm^3. The control group received blank solvent (saline containing 0.1% Tween 80 and 0.5% methyl cellulose), while the test group received a drug dose of 75 mg/kg or 100 mg/kg, twice a day. Tumor volume was measured in two dimensions with calipers three times a week, and the animals were weighed every day. […] Volume calculation formula: V=1/2a*b^2, where a denotes the long diameter of the tumor, and b the short diameter of the tumor.

SDMA/HCT116-MTAPwt = experiment: In-cell arginine symmetric dimethylation inhibition (In-cell western, ICW), wild-type cells; type: cell-based; settings: Homo sapiens, HCT-116, 96 hours
Method: as §3, §4, §5

HCT116-MTAPwt = experiment: 2D antiproliferative assay (CTG cell viability), wild-type cells; type: cell-based; settings: Homo sapiens, HCT-116, 7-10 days
Method: as §6

[5] = Liver microsomal stability assay, human; settings: liver microsomes
Method: as §7

hERG channels = hERG channels (Homo sapiens, UniProt Q12809); experiment: cell-based
Method: The CHO hERG-Duo cell line stably expressing hERG channels was purchased from B'SYS GmbH and screened for monoclonal clones using the patch clamp system of Pharmaron Beijing Co., Ltd. The cells were cultured in a medium containing F12 (HAM) medium, 10% fetal bovine serum, 100 U/mL penicillin-streptomycin, 100 µg/mL hygromycin, and 100 µg/mL G418.
The membrane was depolarized to +30 mV for 4.8 seconds before returning the voltage to -50 mV for 5.2 seconds to remove inactivation and measure the deactivation tail current. The sampling interval was 15 seconds, and the peak tail current size was used to quantify the hERG current amplitude.
A blank vehicle was applied to the cells to establish a baseline. Test samples were introduced after stabilizing the hERG current for at least 5 minutes. In the presence of the test compound, the hERG current at different working concentrations was recorded for no less than 5 minutes until reaching a steady state, before capturing 5 sweeps. If a steady state was not reached within 10 minutes, the mean peak current of the last 5 sweeps was taken instead of the steady-state value. […] Peak current inhibition = (1−(Peak tail currentcompound −Peak tail currentpositive control)/(Peak tail currentBlank vehicle −Peak tail currentpositive control)) × 100 [formula]

[6] = tested on: HUP-T4 (MTAPdel) human pancreatic cancer tumor cells; experiment: In vivo efficacy, HUP-T4 subcutaneous xenograft; parameters: species or system BALB/c nude mice; settings: BID, oral; for TGI: 28 consecutive days; for Tumor volume (mm^3)-D1: D1 (baseline at start of dosing)
Method: HUP-T4 (MTAPdel) human pancreatic cancer tumor cells (MEM medium with 10% fetal bovine serum) were cultured and inoculated into 6-8 week old female BALB/c nude mice (weighing about 25 g), with all mice subcutaneously inoculated. The mice were cultured in an SPF-grade environment, and all mice had free access to commercially certified standard diets. Test compounds were orally administered daily once the average tumor volume of the mice grew to about 176 mm^3. The control group received blank solvent (0.1% TW80+0.5% methylcellulose+99.4% saline), while the test group received a drug dose of 75 mg/kg or 50 mg/kg, twice a day. Tumor volume was measured in two dimensions with calipers three times a week, and the animals were weighed every day. […] Voume calculation formula: V=1/2a*b^2, where a denotes the long diameter of the tumor, and b the short diameter of the tumor.

in vitro [7] = settings: human, microsomes
Method: as §7

Sequence of hERG channels (Q12809 whole entry): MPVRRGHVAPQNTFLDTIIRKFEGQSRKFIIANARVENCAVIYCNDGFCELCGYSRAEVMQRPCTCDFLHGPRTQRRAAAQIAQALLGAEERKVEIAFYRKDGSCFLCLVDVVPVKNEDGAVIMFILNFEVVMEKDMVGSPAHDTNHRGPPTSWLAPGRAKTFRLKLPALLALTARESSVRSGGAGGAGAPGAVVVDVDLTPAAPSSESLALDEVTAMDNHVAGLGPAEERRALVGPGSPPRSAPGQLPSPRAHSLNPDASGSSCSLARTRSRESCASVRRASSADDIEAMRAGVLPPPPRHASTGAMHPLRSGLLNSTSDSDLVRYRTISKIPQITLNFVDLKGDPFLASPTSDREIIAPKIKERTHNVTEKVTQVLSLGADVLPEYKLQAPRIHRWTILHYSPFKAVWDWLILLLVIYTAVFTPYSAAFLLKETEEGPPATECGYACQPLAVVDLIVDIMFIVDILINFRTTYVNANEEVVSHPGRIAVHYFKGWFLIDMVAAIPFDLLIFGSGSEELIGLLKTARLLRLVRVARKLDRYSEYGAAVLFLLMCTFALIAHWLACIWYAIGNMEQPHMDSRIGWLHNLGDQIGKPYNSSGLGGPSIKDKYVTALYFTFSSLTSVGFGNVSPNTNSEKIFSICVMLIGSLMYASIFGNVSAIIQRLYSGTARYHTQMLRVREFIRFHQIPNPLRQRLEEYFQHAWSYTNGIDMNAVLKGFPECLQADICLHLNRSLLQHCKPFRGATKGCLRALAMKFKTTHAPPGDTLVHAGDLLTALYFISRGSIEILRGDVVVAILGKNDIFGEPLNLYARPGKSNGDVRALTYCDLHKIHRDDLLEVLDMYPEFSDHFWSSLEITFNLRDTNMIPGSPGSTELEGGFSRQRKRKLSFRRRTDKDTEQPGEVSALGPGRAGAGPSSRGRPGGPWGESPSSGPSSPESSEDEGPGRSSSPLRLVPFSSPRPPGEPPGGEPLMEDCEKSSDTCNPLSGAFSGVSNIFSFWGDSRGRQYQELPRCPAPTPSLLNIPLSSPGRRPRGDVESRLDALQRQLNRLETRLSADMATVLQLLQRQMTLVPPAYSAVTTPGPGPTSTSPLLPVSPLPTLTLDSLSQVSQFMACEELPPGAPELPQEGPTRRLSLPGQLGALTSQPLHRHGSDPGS

SMILES	F [1]	AUC(0-t) ([1]; iv, 2 mg/kg)	C0 ([1]; iv, 2 mg/kg)	clearance ([1]; iv, 2 mg/kg)	half-life ([1]; iv, 2 mg/kg)	AUC(0-t) ([1]; po, 10 mg/kg)	Cmax ([1]; po, 10 mg/kg)	Tmax ([1]; po, 10 mg/kg)	half-life ([1]; po, 10 mg/kg)	CLint scaled at 1 µM [2]	efflux ratio (MDR1 (P-gp))	Papp A→B (in vitro [3])	Papp B→A (in vitro [3])	IC50 (SDMA/HCT116-MTAPdel)	Selectivity wt/MTAPdel (SDMA/HCT116-MTAPdel)	IC50 (HCT116-MTAPdel)	HCT116WT IMTAPdel selectivity (HCT116-MTAPdel)	IC50 (SDMA/HCT116-MTAPwt)	IC50 (HCT116-MTAPwt)	CLint scaled at 1 µM [5]	other results
CN(C(=O)C(=O)Nc1cnc(N)c2c1cnn2C)[C@@H]1COc2cc(C(F)(F)F)ccc21 [Compound P2a]	69%	402 ng·h/mL	345 ng/mL	82.4 mL/min/kg	1.2 h	1380 ng·h/mL	707 ng/mL	0.25 h	1.2 h	55 mL/min/kg	1.5	14.8 ×10⁻⁶ cm/s	22.1 ×10⁻⁶ cm/s	0.5 nM	3054	5 nM	216	1530 nM	1080 nM	7.4 mL/min/kg	TGI ([4]; 75 mg/kg): 92%; Tumor volume (mm^3)-D1 ([4]; 75 mg/kg): 140 mm^3; Tumor volume (mm^3)-D23 ([4]; 75 mg/kg): 350 mm^3; TGI ([4]; 100 mg/kg): 97%; Tumor volume (mm^3)-D1 ([4]; 100 mg/kg): 140 mm^3; Tumor volume (mm^3)-D23 ([4]; 100 mg/kg): 180 mm^3
CN(C(=O)C(=O)Nc1cnc(N)c2c1cnn2C)[C@@H]1COc2cc(SC(F)(F)F)ccc21 [Compound P29a]											1.75	7.6 ×10⁻⁶ cm/s	13.3 ×10⁻⁶ cm/s	0.4 nM	670	9 nM	261	268 nM	2350 nM	49.7 mL/min/kg	IC50 (hERG channels): 1500 nM
[2H]C([2H])([2H])N(C(=O)C(=O)Nc1cnc(N)c2c1cnn2C)[C@@H]1COc2cc(C(F)(F)F)ccc21 [Compound P22]	62%	896 ng·h/mL	1140 ng/mL	35.5 mL/min/kg	2.6 h	2660 ng·h/mL	1180 ng/mL	0.25 h	2.2 h	46.2 mL/min/kg	1.38	14.9 ×10⁻⁶ cm/s	20.6 ×10⁻⁶ cm/s	0.2 nM	1490	6 nM	160	298 nM	961 nM	7.8 mL/min/kg	TGI ([6]; 50 mg/kg): 102%; Tumor volume (mm^3)-D1 ([6]; 50 mg/kg): 176 mm^3; Tumor volume (mm^3)-D28 ([6]; 50 mg/kg): 158 mm^3; TGI ([6]; 75 mg/kg): 104%; Tumor volume (mm^3)-D1 ([6]; 75 mg/kg): 176 mm^3; Tumor volume (mm^3)-D28 ([6]; 75 mg/kg): 146 mm^3
CN(C(=O)C(=O)Nc1cnc(N)c2c1cnn2C)C1COc2cc(SC(F)(F)F)ccc21 (racemic) [Compound P29]																20 nM	165		3300 nM		CLint scaled at 1 h, 1 µM (in vitro [7]): 25.9 mL/min/kg
[2H]C([2H])([2H])N(C(=O)C(=O)Nc1cnc(N)c2c1cnn2C)[C@@H]1COc2cc(SC(F)(F)F)ccc21 [Compound P32]	75%	788 ng·h/mL	733 ng/mL	41.8 mL/min/kg	1.4 h	2580 ng·h/mL	798 ng/mL	0.25 h	1.7 h	242 mL/min/kg	1.28	10.5 ×10⁻⁶ cm/s	13.5 ×10⁻⁶ cm/s	0.3 nM	853	9 nM	194	256 nM	1750 nM	32 mL/min/kg	TGI ([6]; 50 mg/kg): 97%; Tumor volume (mm^3)-D1 ([6]; 50 mg/kg): 176 mm^3; Tumor volume (mm^3)-D28 ([6]; 50 mg/kg): 198 mm^3; TGI ([6]; 75 mg/kg): 104%; Tumor volume (mm^3)-D1 ([6]; 75 mg/kg): 176 mm^3; Tumor volume (mm^3)-D28 ([6]; 75 mg/kg): 140 mm^3; IC50 (hERG channels): 2900 nM
